Laboratory results: US8541670B2, “Compositions and methods for inhibiting tumor cell growth” (priority 2007, dated 2013)
Several values for one entry are separate records, joined by “and”; a condition that tells them apart may be missing. Equal entries are not always repeated. Where no end group is shown, it is not given here. red fluorescent dye = not defined here

Legend:
AKT1 [1] = biological target: T1, AKT1 (Homo sapiens, UniProt P31749); experiment: AKT kinase assay with Ser-9 GSK-3 GST fusion protein substrate (western blot, phospho-specific antibody); type: biochemical; conditions: wild-type active AKT
T1 construct: purchased Upstate Biotechnology
Description: Since the observed effect of H-89 and forskolin on AKT activity in cultured cells could be interpreted as the result of the regulatory interference of other signaling pathways, in vitro analysis was carried using purified, active forms of AKT and PKAc to examine the direct result of this interaction on the kinase catalytic activity. […] This decrease in the catalytic activity of AKT by PKAc was inhibited when the PKA inhibitor was added to the reaction mixture. […] The decrease in the catalytic activity of AKT by PKAc was also observed with two mutants and active forms of AKT1, one with a deletion in the PH domain and the other one with a Ser473Asp mutation. As with wild-type AKT, the inhibitory effect of PKAc on the mutants was reversed in the presence of the PKA inhibitor peptide. […]
For non-radioactive kinase assays, typically 25 ng of active AKT1 or PKAc (Upstate Biotechnology) was used in a kinase assay reaction buffer (20 mM MOPS, pH 7.2, 25 mM […]-glycerophosphate, 5 mM EGTA, 1 mM Na3VO4, 1 mM dithiothreitol, 75 mM MgCl2, and 0.5 mM ATP) in the presence of either 1 μL of Ser-9 GSK-3 GST fusion protein (Cell Signaling), or recombinant DARPP-32 (10 μg). […] A 5 μL aliquot of the reaction was transferred to phosphocellulose paper, washed for 30 minutes with dH2O, and CPM of samples read in scintillation counter.

AKT1 [2] = biological target: T1, AKT1; experiment: AKT1 radioactive in vitro kinase assay (32P incorporation into Ser-21 GSK-3 substrate peptide); type: biochemical
Description: AKT1 catalytic activity was determined by measuring the incorporation of −^32P into Ser-21 glycogen synthase kinase 3[…] (GSK-3[…]) substrate peptide. Histogram bars represent the number of −^32P counts per minute (CPM). Reactions were carried out in the presence of different concentrations of the ZaTa peptide (SEQ ID NO:60), as well as a control peptide (SEQ ID NO:59) which shares 11 out of 17 amino acids in common with the N-terminus of the ZaTa peptide.
Of particular interest with regard to inhibitory activity toward AKT was peptide […](SEQ ID NO:60) which flanked the Thr-197 phosphorylation site of PKAc. […] Furthermore, the inhibitory effect of ZaTa peptide was compared with an adjacent peptide ([…] SEQ ID NO:59), a peptide that overlaps with the 11 N-terminal amino acid residues of the ZaTa peptide and carries the Thr-197 phosphorylation site. In this assay, the level of incorporation of −^32 P into Ser-21 GSK-3[…] substrate peptide was used as the measure of AKT1 in vitro catalytic activity.
For non-radioactive kinase assays, typically 25 ng of active AKT1 or PKAc (Upstate Biotechnology) was used in a kinase assay reaction buffer (20 mM MOPS, pH 7.2, 25 mM […]-glycerophosphate, 5 mM EGTA, 1 mM Na3VO4, 1 mM dithiothreitol, 75 mM MgCl2, and 0.5 mM ATP) in the presence of either 1 μL of Ser-9 GSK-3 GST fusion protein (Cell Signaling), or recombinant DARPP-32 (10 μg). For the radioactive kinase assays, typically 25 ng of kinase was added to the kinase assays reaction buffer (20 mM MOPS, pH 7.2, 25 mM […]-glycerophosphate, 5 mM EGTA, 1 mM Na3VO4, 1 mM dithiothreitol) containing 30 μM of dephosphorylated Ser-21 GSK-3 substrate peptide (Upstate Biotechnology) in the presence of different concentrations of inhibitor. Reactions were initiated by adding [−^32P] ATP (10 μCi/reaction) which was diluted in the reaction buffer, plus 500 μM cold ATP and 75 mM MgCl2. Kinase reactions were incubated 30° C. for 10-20 minutes. A 5 μL aliquot of the reaction was transferred to phosphocellulose paper, washed for 30 minutes with dH2O, and CPM of samples read in scintillation counter.

p70S6K = biological target: T2, p70S6K (Homo sapiens, UniProt P23443); experiment: In vitro kinase assay p70S6K; type: biochemical; conditions: ten times higher concentration than 0.1 μM
T2 construct: endogenous in cells
Description: As a specific substrate, the phosphorylation level of GSK-3[…] at Ser-9 was also evaluated. […] The decrease was specific to the AKT phosphorylation site on GSK-3[…] at Ser-9, since a change in the phosphorylation level of GSK-3[…] at Tyr-216 or GSK-3[…] at Tyr-279 was not observed. Moreover, the in vivo reduction of the phosphorylation of AKT substrates was more obvious at the injection site, since a significant change in the phosphorylation of AKT substrates in the frontal cortex or cerebellum between the two hemispheres was not observed. […] To test the specificity/selectivity of ZaTa as the inhibitor of AKT1 versus the other major kinases, a series of in vitro kinase assays was performed at IC50 for AKT1 and at ten times higher concentrations. A panel of the following 32 kinases was first tested in vitro using the active form of each kinase and a specific substrate: AKT2, AKT3, PKA, PKC[…], PKC, PI3K[…], PI3K[…], PI3K, SGK, PAK2, PAK3, SAPK2/p38, Abl, CaMKII, CDK1/cyclinB, CDK5/p35, CK1, CK2, CSK, GSK3[…], GSK3[…], JNK1[…]1, MAPK1, p70S6K, PDGFR[…], PDGFR[…], PDK1, PKG1[…], TrkB, JAK2, JAK3, and Syk. […] However, at ten times higher concentration, ZaTa inhibited AKT2 (63%), PI3K[…] (72%), p70S6K (64%), SGK (73%), PAK3 (83%), JAK3 (79%), TrkB (84%), and Abl (42%). […]

PAK3 = PAK3 (Homo sapiens, UniProt O75914); experiment: Cell-based kinase assay, phosphorylation of intracellular substrate (Ser-338 cRaf)
Description: As a specific substrate, the phosphorylation level of GSK-3[…] at Ser-9 was also evaluated. […] The decrease was specific to the AKT phosphorylation site on GSK-3[…] at Ser-9, since a change in the phosphorylation level of GSK-3[…] at Tyr-216 or GSK-3[…] at Tyr-279 was not observed. Moreover, the in vivo reduction of the phosphorylation of AKT substrates was more obvious at the injection site, since a significant change in the phosphorylation of AKT substrates in the frontal cortex or cerebellum between the two hemispheres was not observed. […] To test the specificity/selectivity of ZaTa as the inhibitor of AKT1 versus the other major kinases, a series of in vitro kinase assays was performed at IC50 for AKT1 and at ten times higher concentrations. […]
Phosphorylation sites for kinases analyzed herein included Ser-235/236 S6 (a substrate for p70S6K), Tyr-207 CRKL (a substrate for Abl; Zipfel, et al. (2004) supra), Ser-241 PDK1 (a substrate for PI3K), Tyr-1022/1023 JAK1 (a substrate for JAK3; Wang, et al. (2003) supra), Ser-421 Huntingtin (a substrate for SGK; Rangone, et al. (2004) supra), Tyr-783 PLC (a substrate for TrkB; Middlemas, et al. (1994) supra), and Ser-338 cRaf (a substrate for PAK3; King, et al. (1998) supra).

T1 sequence (P31749 whole entry, the tested form may be a part): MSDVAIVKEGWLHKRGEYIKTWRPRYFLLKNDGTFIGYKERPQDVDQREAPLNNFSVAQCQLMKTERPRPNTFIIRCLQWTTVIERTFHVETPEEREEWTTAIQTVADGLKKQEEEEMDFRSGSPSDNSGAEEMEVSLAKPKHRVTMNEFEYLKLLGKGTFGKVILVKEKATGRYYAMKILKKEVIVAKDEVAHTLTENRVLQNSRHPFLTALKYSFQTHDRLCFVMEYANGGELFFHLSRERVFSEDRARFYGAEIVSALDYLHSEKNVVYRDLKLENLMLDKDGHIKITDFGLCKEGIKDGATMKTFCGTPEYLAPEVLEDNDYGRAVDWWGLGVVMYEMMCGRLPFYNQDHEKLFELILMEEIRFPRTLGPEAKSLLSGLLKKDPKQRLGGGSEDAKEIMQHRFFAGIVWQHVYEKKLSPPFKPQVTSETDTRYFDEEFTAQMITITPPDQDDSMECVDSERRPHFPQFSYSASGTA
Sequence of PAK3 (O75914 whole entry, species assumed): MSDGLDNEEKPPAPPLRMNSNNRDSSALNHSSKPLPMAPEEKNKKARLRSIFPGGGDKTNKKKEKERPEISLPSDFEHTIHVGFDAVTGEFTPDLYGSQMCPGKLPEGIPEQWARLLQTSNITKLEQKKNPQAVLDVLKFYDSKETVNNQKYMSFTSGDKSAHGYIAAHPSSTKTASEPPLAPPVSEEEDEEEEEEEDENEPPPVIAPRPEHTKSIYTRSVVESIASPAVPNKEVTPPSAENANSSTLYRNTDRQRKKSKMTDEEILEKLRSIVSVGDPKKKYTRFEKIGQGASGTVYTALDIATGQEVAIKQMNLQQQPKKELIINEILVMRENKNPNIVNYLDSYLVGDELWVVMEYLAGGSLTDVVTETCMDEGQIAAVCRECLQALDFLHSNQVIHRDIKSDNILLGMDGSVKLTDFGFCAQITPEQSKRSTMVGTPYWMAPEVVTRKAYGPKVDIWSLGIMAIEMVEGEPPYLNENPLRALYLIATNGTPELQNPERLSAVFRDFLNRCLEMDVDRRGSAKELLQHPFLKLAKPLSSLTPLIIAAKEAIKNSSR
T2 sequence (P23443 whole entry): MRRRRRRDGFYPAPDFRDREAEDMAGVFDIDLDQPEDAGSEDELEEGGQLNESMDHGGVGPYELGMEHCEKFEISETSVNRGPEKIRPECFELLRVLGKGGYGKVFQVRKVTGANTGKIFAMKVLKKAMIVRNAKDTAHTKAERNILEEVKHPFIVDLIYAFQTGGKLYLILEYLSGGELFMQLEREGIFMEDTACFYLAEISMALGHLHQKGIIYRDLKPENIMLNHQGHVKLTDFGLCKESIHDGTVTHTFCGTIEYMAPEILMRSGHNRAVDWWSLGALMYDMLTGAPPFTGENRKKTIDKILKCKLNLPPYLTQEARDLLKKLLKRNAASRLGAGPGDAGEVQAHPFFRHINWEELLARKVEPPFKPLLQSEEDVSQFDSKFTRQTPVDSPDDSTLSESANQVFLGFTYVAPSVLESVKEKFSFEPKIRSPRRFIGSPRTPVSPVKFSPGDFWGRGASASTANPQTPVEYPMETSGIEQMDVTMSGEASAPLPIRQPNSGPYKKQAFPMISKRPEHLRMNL

Substance	AKT catalytic activity, phosphorylation level of Ser-9 GSK-3 GST substrate (AKT1 [1])	IC50 (AKT1 [2]; 32P incorporation into Ser-21 GSK-3 substrate peptide, read-out: IC-50, AKT1 catalytic activity in vitro)	IC-50 of the ZaTa peptide (in words) (AKT1 [2]; FIG. 1 legend)	whether peptide is a substrate for AKT (AKT1 [2]; control kinase reactions with peptide and AKT only)	inhibition of p70S6K (p70S6K) [%]	inhibition of PAK3 in cells (PAK3)
AKRVKGRTWTLCGTPEY [ZaTa]	significantly reduced	~100 nM and 100 nM	within a nanomolar range	not a substrate for AKT	64	
labeled ZaTa: ZaTa peptide labeled with a red fluorescent dye at its N-terminus ({red fluorescent dye}-AKRVKGRTWTLCGTPEY; reading uncertain)						did not cause inhibition
